According to US20180037871A1, “CANCER INITIATING CELL AND USE THEREOF” (priority 2016, published 2018):
Entries after “also recorded” stand apart in the source; their conditions may differ. Like-named read-outs stand apart in the source and are kept apart here.

Tests used:
[1] = tested on: CAR+/mPSCs^Oct-4_hi C1 clone; experiment: Cell viability assay (WST-1), C1 clone; assay type: cell-based, mouse; conditions: 48 h, mean ± SD
Protocol: (§1) Cells were seeded at 3×10^3 cells per well in 96-well plates and incubated for 18 h. Cells were treated with cisplatin (Sigma-Aldrich) or paclitaxel (Sigma-Aldrich) at various concentrations. After 48 h, WST-1 assay (Roche) was performed to determine cell viability according to the manufacturer's instructions. Cell viability was expressed as a percentage of the non-treated group, and the IC50 values were determined.

[2] = tested on: CAR+/mPSCs^Oct-4_hi C7 clone; experiment: Cell viability assay (WST-1), C7 clone; assay type: cell-based, mouse; conditions: 48 h, mean ± SD
Protocol: as §1

A549 cells = experiment: Cell viability assay (WST-1), A549 cells; assay type: cell-based, human; conditions: 48 h, mean ± SD
Protocol: as §1

[3] = tested on: CAR+/mPSCs^Oct-4_hi C1, E9, and C7 clones; experiment: Cell viability assay (WST-1), C1, E9 and C7 clones together; assay type: cell-based, mouse; conditions: for IC50: range over C1, E9, and C7 clones, 48 h
Protocol: as §1

[4] = tested on: CAR+/mPSCs^Oct-4_hi E9 clone; experiment: Cell viability assay (WST-1), E9 clone; assay type: cell-based, mouse; conditions: 48 h, mean ± SD
Protocol: as §1

C1 clone tumor = experiment: Xenograft tumor assay of C1 clone; assay type: in vivo; conditions: 50 mg/kg BW ip once every two days, 1×10^5 C1 cells sc, SCID mice, volume recorded day 10 to 25
Source text: All animal experiments were reviewed and approved by the Institutional Animal Care and Use Committee of National Taiwan University College of Medicine. For teratoma formation assay, 1×10^6 cells of CAR^+/mPSCs^Oct-4^_^hi C1, E9, and C7 clones were subcutaneously injected into 8-week-old male severe combined immunodeficiency (SCID) mice. For limiting dilution transplantation experiment, the C1 clone (10^5, 10^4, 10^3 and 10^2 cells) or CAR^+/mPSCs (10^6 cells) were subcutaneously injected into SCID mice. For C1-GFP clone and A549 cells derived tumor experiments. C1-GFP clone (1×10^5 cells) or A549 (1×10^6 cells) were subcutaneously injected into SCID mice. Tumor dimensions were measured using calipers once every 3 d, and volumes (cm^3) were calculated according to the standard formula: length×width^2/2. At the end of the experiment, the tumors were surgically excised and photographed. In metastasis assay, 3×10^5 cells of C1 clone, and CAR^+/mPSCs were injected into the lateral tail vein of SCID mice. Lung metastatic nodules were evaluated at week 5 by necropsy and histological examination. […]
1×10^5 cells of CAR^+/mPSCs^Oct-4^_^hi C1 clone were subcutaneously injected into 8-week-old male severe combined immunodeficiency (SCID) mice. […] Tumor dimensions were measured using calipers once every 2 or 3 d, and volumes (cm^3) were calculated according to the standard formula: length×width^2/2. […]

[5] = tested on: blood vessel formation induced by C1 clone; experiment: Chick chorioallantoic membrane (CAM) assay of C1 clone; assay type: in vivo, chicken; conditions: 2 μM Tie2 kinase inhibitor, C1 clone 1×10^6 cells on CAM
Protocol: Fertilized chicken eggs were incubated at 37° C. in an atmosphere of 80% humidity. At day 8 of the development, 1×10^6 cells were loaded onto a membrane and implanted on the top of the growing CAM. At day 11, CAM was fixed with 4% paraformaldehyde, and photographed using a stereomicroscope and digital camera. Branching points were quantified using NIH Image J software with the angiogenesis plugin.
At day 11, CAM was fixed with 4% paraformaldehyde, and photographed using a stereomicroscope and a digital camera. Branching points were quantified using NIH Image J software with the angiogenesis plugin.

[6] = IC50 in C1, E9, C7 clones versus A549 cells
[7] = Mus musculus, read-out: IC50 of paclitaxel

Question: With `N.N.[Cl][Pt][Cl]` [Cisplatin, cisplatin] as the compound, how does the IC50 ([1]; read-out: IC50 of cisplatin) read?
Answer: Its IC50 is 34.7 ± 1.4 µM.

Question: And the IC50 ([2]; read-out: IC50 of cisplatin)?
Answer: Its IC50 is 32.7 ± 1.6 µM.

Question: And the IC50 (A549 cells; read-out: IC50 of cisplatin)?
Answer: The IC50 was 13.5 ± 2.2 µM.

Question: And the “resistance to cisplatin compared to the A549 cells” value [3, 6]?
Answer: The value was 2-3 fold.

Question: And the IC50 ([3]; read-out: IC50 of cisplatin)?
Answer: The IC50 was 26.4 to 34.7 µM.

Question: What about the IC50 ([4]; read-out: IC50 of cisplatin) of the same compound?
Answer: The IC50 was 26.4 ± 2.3 µM.

Question: Which IC50 [1, 7] does the source give for `CC(=O)O[C@H]1C(=O)[C@@]2(C)[C@H]([C@H](OC(=O)c3ccccc3)[C@]3(O)C[C@H](OC(=O)[C@H](O)[C@@H](NC(=O)c4ccccc4)c4ccccc4)C(C)=C1C3(C)C)[C@]1(OC(C)=O)CO[C@@H]1C[C@@H]2O` [Paclitaxel, paclitaxel] here?
Answer: Its IC50 is 0.0472 ± 0.002 µM.

Question: And the IC50 [2, 7]?
Answer: The IC50 was 0.045 ± 0.0025 µM.

Question: And the IC50 (A549 cells; Homo sapiens, read-out: IC50 of paclitaxel)?
Answer: Its IC50 is 0.0082 ± 0.0035 µM.

Question: What about the “IC50 of paclitaxel higher than that of the A549 cells” value [3, 6] of the same compound?
Answer: Its value is “approximately 6 fold”.

Question: And the IC50 [3, 7]?
Answer: The IC50 was 0.0432 to 0.0472 µM.

Question: What about the IC50 [4, 7] of the same compound?
Answer: The IC50 was 0.0432 ± 0.0036 µM.

Question: For `COc1ccc2cc(-c3nc(-c4ccc([S+](C)[O-])cc4)[nH]c3-c3ccncc3)ccc2c1` (stereo not drawn) [Tie2 kinase inhibitor], which “tumor volume / tumor growth” value (C1 clone tumor) is on record?
Answer: Its value is “the tumor growth of C1 clone is inhibited”.

Question: What about the “tumor volume / tumor growth” value (C1 clone tumor; listed as Tie2 inhibitor) of the same compound?
Answer: Its value is “significantly reduced the tumor volume”.

Question: What about the “blood vessel formation (branch point number)” value [5] of the same compound?
Answer: The value was “inhibited the blood vessel formation; also recorded: decreases the blood vessel formation induced by C1 clone”.
